“And” between values parts separate entries of the source, which are not always exact repeats. Equal values may be shown once.

The data set in a line: photoluminescence quantum yield (fraction); solvent given as SMILES.

`C1=Cc2ccc(N(c3ccccc3)c3ccccc3)cc2Cc2cc(N(c3ccccc3)c3ccccc3)ccc21`: the photoluminescence quantum yield (in ClCCl) was determined as 0.99.
With `CC1(C)Cc2c(c3ccccc3c3nc4c(nc23)c2c(c3ccccc34)OC(C)(C)C2)O1`, the photoluminescence quantum yield reads like this: (in C1CCCCC1) 0.43; (in C1COCCO1) 0.53; (in CC#N) 0.39; (in CC(C)O) 0.57; (in CCCCCC) 0.4; (in ClC(Cl)Cl) 0.43. Further, the photoluminescence quantum yield (in c1ccccc1) worked out at 0.39.
Regarding `O=C(O)C1=C(C(=O)O)C2=C[C@H]3c4ccccc4[C@]2(S1)c1ccccc13`, the photoluminescence quantum yield (in ClCCl) was 0.72.
As to `CNc1ncc2nc(C(=O)OC)n(Cc3ccccc3)c2n1`, the photoluminescence quantum yield came out at 0.65 (in C1COCCO1), 0.66 (in CC#N), 0.61 (in CO) and 0.65 (in ClCCl).
Regarding `COc1ccc(-n2nc(C#N)c(N3CCN(c4ccccn4)CC3)n2)cc1`, the photoluminescence quantum yield (in CC#N) worked out at 0.064.
As for `COc1ccc2c(-c3nc(-c4cccc(C)c4)no3)cc(=O)oc2c1`, the photoluminescence quantum yield reads like this: (in CCO) 0.52; (in ClC(Cl)Cl) 0.12.
Regarding `COc1ccc(C#Cc2ccc(C#Cc3ccc(P(=O)(c4ccc(C#Cc5ccc(C#Cc6ccc(OC)cc6)cc5)cc4)c4ccc(C#Cc5ccc(C#Cc6ccc(OC)cc6)cc5)cc4)cc3)cc2)cc1`, the photoluminescence quantum yield is 0.78 (in C1CCCCC1); 0.89 (in C1COCCO1); 0.79 (in CC#N); 0.86 (in CCO); 0.71 (in CS(C)=O); 0.77 (in ClC(Cl)Cl). Besides, under “in ClCCl”, the photoluminescence quantum yield came to 0.73.
Consider `CCCCNC(=O)c1nc2c(N(C)C)nc(N(C)C)nc2n1Cc1ccccc1`, for which the photoluminescence quantum yield (in C1COCCO1) came to 0.95, the photoluminescence quantum yield (in CC#N) is 0.95, the photoluminescence quantum yield (in CO) worked out at 0.89 and the photoluminescence quantum yield (in ClCCl) stood at 0.87.
For `COc1ccc(-n2c(C)ccc2C)cc1`, the photoluminescence quantum yield came out at 0.026 (in CC#N) and 0.024 (in CCCCCC).
For the compound `CCC1=C(C)C(=O)n2c1cc1c(C)c(CC(=O)OC)c(C)n1c2=O`, the photoluminescence quantum yield (in CO) is 0.94, the photoluminescence quantum yield (in CS(C)=O) worked out at 1, the photoluminescence quantum yield (in ClC(Cl)Cl) was found to be 1 and the photoluminescence quantum yield (in c1ccccc1) stood at 1.
`COc1ccc(C(=O)NC(C)(C)C)c2c1ccc1c3ccccc3c3ccccc3c12` gave a photoluminescence quantum yield (in ClCCl) of 0.1.
`CCC(C)(C)c1ccc(-c2ccc3c(c2)C(CCOC)(CCOC)c2cc4c(cc2-3)C(CCOC)(CCOC)c2cc(-c3ccc(C(C)(C)CC)cc3)ccc2-4)cc1` returned a photoluminescence quantum yield (in C1CCCCC1) of 0.86.
In turn, `C[C@]12SC(=O)C=C1c1nc(-c3ccc(Cl)cc3Cl)[nH]c1C1=CC(=O)S[C@@]12C` showed a photoluminescence quantum yield (in CC#N) of 0.11.
For the compound `CCn1c2cc(-c3cccs3)ccc2c2ccc(-c3cccs3)cc21`, the photoluminescence quantum yield (in ClCCl) was 0.61.
Turning to `CCCCCCCCOc1ccc2c3cccc4c(OCCCCCCCC)ccc(c5cccc1c52)c43`, the photoluminescence quantum yield by setting is: (in C1CCOC1) 0.94; (in Cc1ccccc1) 0.9; (in ClC(Cl)(Cl)Cl) 0.08; (in ClC(Cl)Cl) 0.69; (in ClCCl) 0.81; (in c1ccncc1) 0.9.
Take `c1ccc2ccccc2c1`: the photoluminescence quantum yield (in C1CCCCC1) was 0.23 and 0.42.
Take `CCN(CC)c1ccc(/C=C/c2cc(/C=C/c3ccc(N(CC)CC)cc3)nc(N)n2)cc1`: the photoluminescence quantum yield (in Cc1ccccc1) amounted to 0.72 and the photoluminescence quantum yield (in ClC(Cl)Cl) stood at 0.61.
Where the note is “in ClCCl”, `COc1ccc(-c2c3ccccc3c(-c3ccc(OC)cc3)c3ccccc23)cc1` showed a photoluminescence quantum yield of 0.59.
As to `COC(=O)CCC(NC(=O)CCNc1cccc2ccccc12)C(=O)OC` (centres undefined), the photoluminescence quantum yield (in CCO) was 0.57.
Regarding `c1ccc(-c2nc(-c3ccccc3)nc(-c3ccccc3-n3c4ccccc4c4c5oc6ccccc6c5ccc43)n2)cc1`, for the setting “in O=P(c1ccccc1)(c1ccccc1)c1ccccc1Oc1ccccc1P(=O)(c1ccccc1)c1ccccc1”, the photoluminescence quantum yield came to 0.979.
As to `COCc1ncc(-c2c3ccccc3c(-c3cnc(COC)nc3)c3ccccc23)cn1`, the photoluminescence quantum yield was determined as 0.89 (in CCO) and 0.83 (in ClCCl).
Compound `CCCCCCCCCCCCCCCCCCN1C(=O)c2ccc3c4ccc5c6c(ccc(c7ccc(c2c37)C1=O)c64)C(=O)NC5=O` showed a photoluminescence quantum yield (in CN(C)C=O) of 0.37.
`c1ccc2c(-c3ccc4sc5ccc(-c6c7ccccc7cc7ccccc67)cc5c4c3)c3ccccc3cc2c1`: the photoluminescence quantum yield by setting is: (in C1CCCCC1) 0.47; (in CC#N) 0.5; (in ClCCl) 0.57.
Consider `COc1ccc(-c2nc(-c3cccc(C#N)c3)[nH]c2-c2ccc(OC)cc2)cc1`, for which the photoluminescence quantum yield (in CO) is 0.06.
In the case of `CC[N+]1=C(/C=C/c2c(C)nn3c(-c4ccc(OC)cc4)ccnc23)C(C)(C)c2ccccc21`, the photoluminescence quantum yield is, setting by setting: (in CCO) 0.37; (in ClCCl) 0.13; (in O) 0.42.
For the compound `O=S1(=O)C2=C(c3ccccc31)C1(C3=C(c4ccccc41)S(=O)(=O)c1ccccc13)c1ccccc12`, the photoluminescence quantum yield (in ClCCl) worked out at 0.76.
With `Cc1ccc(N(c2ccc(C)cc2)c2ccc(-c3ccc(C=C(C#N)C#N)s3)cc2)cc1`, the photoluminescence quantum yield (in ClC(Cl)Cl) came to 0.07.
`COc1ccc(-c2csc(/C(C#N)=C/c3ccc(Cl)cc3)n2)cc1` yielded a photoluminescence quantum yield (in CC#N) of 0.048.
Regarding `CN(C)c1ccc(C(=O)Nc2cccc(Cl)c2)cc1`, the photoluminescence quantum yield reads like this: (in C1CCCCC1) 0.0031; (in C1CCOC1) 0.0263; (in CC#N) 0.0319; (in CCOCC) 0.0103.
In the case of `CC(C)(C)n1c(=O)c2cc3ccc4cccc5ccc(c2c1=O)c3c45`, the photoluminescence quantum yield (in ClC(Cl)Cl) was 0.41 and 0.408.
Under “in C1CCCCC1”, `COc1ccc2c3c(c4ccc(OC)cc4c2c1)C(C)(C)c1c-3ccc2ccccc12` had a photoluminescence quantum yield of 0.26.
Regarding `Cn1ccc(-c2nc3ccccc3nc2/C=C/N2CCCC2)c1`, the photoluminescence quantum yield worked out at 0.184 (in C1CCCCC1); 0.495 (in C1CCOC1); 0.33 (in CC#N); 0.414 (in CC(C)=O); 0.022 (in CCO); 0.006 (in CO). The photoluminescence quantum yield came to 0.325 (in CS(C)=O), 0.469 (in Cc1ccccc1) and 0.611 (in ClCCl).
Compound `CC(C)(C)c1ccc(-c2nnc(-c3c(-n4c5ccccc5c5ccccc54)c(-n4c5ccccc5c5ccccc54)c(-c4nnc(-c5ccc(C(C)(C)C)cc5)o4)c(-n4c5ccccc5c5ccccc54)c3-n3c4ccccc4c4ccccc43)o2)cc1` registered a photoluminescence quantum yield (in c1cc(-n2c3ccccc3c3ccccc32)nc(-n2c3ccccc3c3ccccc32)c1) of 0.89.
Regarding `C#CC1CN2CCC1CC2[C@@H](O)c1ccnc2ccc(OC)cc12` (some centres undefined), the photoluminescence quantum yield (in C1CCOC1) is 0.063; the photoluminescence quantum yield (in CC#N) is 0.008; the photoluminescence quantum yield (in CCCC#N) worked out at 0.032; the photoluminescence quantum yield (in Cc1ccccc1) was 0.023; the photoluminescence quantum yield (in ClCCl) came out at 0.033.
Turning to `O=c1cc(C(F)(F)F)c2cc3c4c(c2o1)CCCN4CCC3`, the photoluminescence quantum yield by setting is: (in CCC#N) 0.76; (in CCCCCCCl) 0.95; (in CCCCl) 0.77; (in CCO) 0.62; (in OCC(F)(F)F) 0.47.
In the case of `CC(=O)c1ccc2ccc3c(NCCC(=O)NCCCCCCc4nc5c(=O)[nH]c(N)nc5n4[C@H]4C[C@H](O)[C@@H](CO)O4)ccc4ccc1c2c43`, the photoluminescence quantum yield is 0.62 (in C1CCOC1); 0.72 (in CC#N); 0.58 (in CC(C)O); 0.49 (in CCO); 0.63 (in CN(C)C=O); 0.44 (in CO). Besides, the photoluminescence quantum yield is, setting by setting: (in CS(C)=O) 0.61; (in O) 0.27; (in OCC(O)CO) 0.38.
As for `COc1ccc(C(=Cc2ccc(C=O)cc2)c2ccc(OC)cc2)cc1`, the photoluminescence quantum yield (in C1CCOC1) was found to be 0.066.
For the setting “in CCO”, `CCOC(=O)c1cc(C(=O)OCC)c2ccccc2n1` came in with a photoluminescence quantum yield of 0.006.
The compound `CC(C)(C)c1ccc2c(c1)c1cc(C(C)(C)C)ccc1n2-c1ccc(C#Cc2ccc(C=C(C#N)C#N)cc2)cc1` gave a photoluminescence quantum yield (in CC#N) of 0.33, a photoluminescence quantum yield (in CCCCC) of 0.5, a photoluminescence quantum yield (in Cc1ccccc1) of 0.48 and a photoluminescence quantum yield (in ClCCl) of 0.4.
Regarding `CCCCn1c(-c2ccc(-c3nnc(-c4ccc5ccccc5c4)o3)cc2)nc2c3ccccc3c3ccccc3c21`, for the setting “in ClCCl”, the photoluminescence quantum yield was found to be 0.75.
For the compound `O=c1c2cc3ccc4cccc5ccc(c2c(=O)n1-c1ccccc1)c3c45`, the photoluminescence quantum yield (in ClC(Cl)Cl) stood at 0.5.
Regarding `Fc1cc(F)c2cc3cccc[n+]3cc2c1`, the photoluminescence quantum yield (in O) came to 0.3.
Regarding `CN(C)c1ccc(C#Cc2cc(C#Cc3ccc(N(C)C)cc3)c3ccc4c(C#Cc5ccc(C(F)(F)F)cc5)cc(C#Cc5ccc(N(C)C)cc5)c5ccc2c3c54)cc1`, the photoluminescence quantum yield (in ClCCl) came to 0.65.
With `COc1ccc(-c2nc(-c3ccccc3)c(N(c3ccccc3)c3ccccc3)s2)cc1`, the photoluminescence quantum yield (in ClC(Cl)Cl) came to 0.16.
In the case of `CN(C)c1ccc(/C=C/C=C/C2=NC3C(=O)NC(N)=NC3N2[C@H]2C[C@H](O)[C@@H](CO)O2)cc1` (some centres undefined), the photoluminescence quantum yield is 0.7 (in C1COCCO1), 0.75 (in CC#N) and 0.58 (in CO).
`COc1ccc2ccc3oc(=O)c(-c4ccccc4)nc3c2c1` displayed a photoluminescence quantum yield (in c1ccccc1) of 0.668.
Consider `c1ccc2c(C3=C(c4cccc5ccccc45)c4cccc5c4c(cc4nc6ccccc6nc45)O3)cccc2c1`, for which the photoluminescence quantum yield (in ClCCl) amounted to 0.32.
`CC1=C(C#Cc2ccc(N(c3ccccc3)c3ccccc3)cc2)C(C)=[N+]2C1=C(c1ccccc1)c1c(C)c(C#Cc3ccc(N(c4ccccc4)c4ccccc4)cc3)c(C)n1[B-]2(F)F`: under “in C1CCOC1”, the photoluminescence quantum yield was determined as 0.31.

Values taken from the Deep4Chem optical property database.
